system: T47D (PIK3CA H1047R) cells; test: pS473 AKT assay with 2.5% FBS, T47D cells; assay type: cell-based; settings: Homo sapiens, pSer473 AKT, DMEM with 2.5% FBS, 2 h treatment, read-out: T47D_IC50
Method in brief: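 In-cell chemiluminescent ELISA of AKT Ser473 phosphorylation, using anti-pSer473 primary and HRP secondary antibodies on fixed cells. T47D (PIK3CA H1047R) cells had 2 h of compound treatment in DMEM containing 2.5% FBS; IC50 derived from dose-response.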

Row | Structure (SMILES) | IC50 [nM]
1 | Cc1cc(C(C)Nc2ccc(Cl)nc2-c2ccncc2F)c2c(c1)c(=O)n(C)c1c2cnn1C1CCN(C(=O)N(C)C)C1 (stereo not shown) [Compound 151, 3-(9-(1-((6-chloro-3′-fluoro-[2,4′-bipyridin]-3-yl)amino)ethyl)-4,7-dimethyl-5-oxo-4,5-dihydro-3H-pyrazolo[3,4-c]isoquinolin-3-yl)-N,N-dimethylpyrrolidine-1-carboxamide] | < 1000
2 | [2H]C([2H])([2H])n1c(=O)c2cc(C)cc(C(C)Nc3ccc(Cl)nc3-c3cnn(C)c3)c2c2cnn(C3CCN(CCC#N)C3)c21 (stereo not shown) [Compound 152, 3-(3-(9-(1-((6-Chloro-2-(1-methyl-1H-pyrazol-4-yl)pyridin-3-yl)amino)ethyl)-7-methyl-4-(methyl-d3)-5-oxo-4,5-dihydro-3H-pyrazolo[3,4-c]isoquinolin-3-yl)pyrrolidin-1-yl)propanenitrile] | < 1000
3 | [2H]C([2H])([2H])n1c(=O)c2cc(C)cc(C(C)Nc3ccc(Cl)nc3-c3nnn(C)n3)c2c2cnn(C3CCN(CCC#N)C3)c21 (stereo not shown) [Compound 153, 3-(3-(9-(1-((6-chloro-2-(2-methyl-2H-tetrazol-5-yl)pyridin-3-yl)amino)ethyl)-7-methyl-4-(methyl-d3)-5-oxo-4,5-dihydro-3H-pyrazolo[3,4-c]isoquinolin-3-yl)pyrrolidin-1-yl)propanenitrile] | < 1000
4 | [2H]C([2H])([2H])n1c(=O)c2cc(C)cc(C(C)Nc3ccc(Cl)nc3-c3cnn(C)c3)c2c2cnn(C3CCN(C(=O)CO)C3)c21 (stereo not shown) [Compound 154, 9-(1-((6-Chloro-2-(1-methyl-1H-pyrazol-4-yl)pyridin-3-yl)amino)ethyl)-3-(1-(2-hydroxyacetyl)pyrrolidin-3-yl)-7-methyl-4-(methyl-d3)-3,4-dihydro-5H-pyrazolo[3,4-c]isoquinolin-5-one] | < 1000
5 | [2H]C([2H])([2H])n1c(=O)c2cc(C)cc(C(C)Nc3ccc(Cl)nc3-c3cnn(C)c3)c2c2cnn(C3CCN(C(=O)CN(C)C)C3)c21 (stereo not shown) [Compound 155, 9-(1-((6-chloro-2-(1-methyl-1H-pyrazol-4-yl)pyridin-3-yl)amino)ethyl)-3-(1-(dimethylglycyl)pyrrolidin-3-yl)-7-methyl-4-(methyl-d3)-3,4-dihydro-5H-pyrazolo[3,4-c]isoquinolin-5-one] | < 1000
6 | [2H]C([2H])([2H])n1c(=O)c2cc(C)cc(C(C)Nc3ccc(Cl)nc3-c3cnn(C)c3)c2c2cnn(C3CCN(C(=O)c4ccnn4C)C3)c21 (stereo not shown) [Compound 156, 9-(1-((6-chloro-2-(1-methyl-1H-pyrazol-4-yl)pyridin-3-yl)amino)ethyl)-7-methyl-4-(methyl-d3)-3-(1-(1-methyl-1H-pyrazole-5-carbonyl)pyrrolidin-3-yl)-3,4-dihydro-5H-pyrazolo[3,4-c]isoquinolin-5-one] | < 1000
7 | [2H]C([2H])([2H])n1c(=O)c2cc(C)cc(C(C)Nc3ccc(Cl)nc3-c3cnn(C)c3)c2c2cnn(C3CCN(C(=O)C4(C#N)CC4)C3)c21 (stereo not shown) [Compound 157, 1-(3-(9-(1-((6-chloro-2-(1-methyl-1H-pyrazol-4-yl)pyridin-3-yl)amino)ethyl)-7-methyl-4-(methyl-d3)-5-oxo-4,5-dihydro-3H-pyrazolo[3,4-c]isoquinolin-3-yl)pyrrolidine-1-carbonyl)cyclopropane-1-carbonitrile] | < 1000
8 | Cc1cc(C(C)Nc2ccc(Cl)nc2-c2cnn(C)c2)c2c(c1)c(=O)n(C)c1c2cnn1C1CCN(C)CC1 (stereo not shown) [Compound 158, 9-(1-((6-Chloro-2-(1-methyl-1H-pyrazol-4-yl)pyridin-3-yl)amino)ethyl)-4,7-dimethyl-3-(1-methylpiperidin-4-yl)-3,4-dihydro-5H-pyrazolo[3,4-c]isoquinolin-5-one] | < 1000
9 | Cc1cc(C(C)Nc2ccc(Cl)nc2-c2ncn(C)n2)c2c(c1)c(=O)n(C)c1c2cnn1C1CCN(C)CC1 (stereo not shown) [Compound 159, 9-[1-[[6-chloro-2-(1-methyl-1,2,4-triazol-3-yl)-3-pyridyl]amino]ethyl]-4,7-dimethyl-3-(1-methyl-4-piperidyl)pyrazolo[3,4-c]isoquinolin-5-one] | < 1000
10 | CCn1cc(-c2nc(Cl)ccc2NC(C)c2cc(C)cc3c(=O)n(C)c4c(cnn4C4CCN(C)CC4)c23)cn1 (stereo not shown) [Compound 160, 9-[1-[[6-chloro-2-(1-ethylpyrazol-4-yl)-3-pyridyl]amino]ethyl]-4,7-dimethyl-3-(1-methyl-4-piperidyl)pyrazolo[3,4-c]isoquinolin-5-one] | < 1000
11 | Cc1cc(C(C)Nc2ccc(Cl)nc2-c2nnn(C)n2)c2c(c1)c(=O)n(C)c1c2cnn1C1CCN(C)CC1 (stereo not shown) [Compound 161, 9-[1-[[6-chloro-2-(2-methyltetrazol-5-yl)-3-pyridyl]amino]ethyl]-4,7-dimethyl-3-(1-methyl-4-piperidyl)pyrazolo[3,4-c]isoquinolin-5-one] | < 1000
12 | Cc1cc(C(C)Nc2ccc(Cl)nc2-c2nnco2)c2c(c1)c(=O)n(C)c1c2cnn1C1CCN(C)CC1 (stereo not shown) [Compound 162, 9-[1-[[6-chloro-2-(1,3,4-oxadiazol-2-yl)-3-pyridyl]amino]ethyl]-4,7-dimethyl-3-(1-methyl-4-piperidyl)pyrazolo[3,4-c]isoquinolin-5-one] | < 1000
13 | CNC(=O)c1ccc(-c2nc(Cl)ccc2NC(C)c2cc(C)cc3c(=O)n(C)c4c(cnn4C4CCN(C)CC4)c23)cn1 (stereo not shown) [Compound 163, 5-[6-chloro-3-[1-[4,7-dimethyl-3-(1-methyl-4-piperidyl)-5-oxo-pyrazolo[3,4-c]isoquinolin-9-yl]ethylamino]-2-pyridyl]-N-methyl-pyridine-2-carboxamide] | < 1000
14 | Cc1cc(C(C)Nc2ccc(Cl)nc2-c2noc(=O)[nH]2)c2c(c1)c(=O)n(C)c1c2cnn1C1CCN(C)CC1 (stereo not shown) [Compound 164, 3-[6-chloro-3-[1-[4,7-dimethyl-3-(1-methyl-4-piperidyl)-5-oxo-pyrazolo[3,4-c]isoquinolin-9-yl]ethylamino]-2-pyridyl]-4H-1,2,4-oxadiazol-5-one] | < 1000
15 | Cc1cc(C(C)Nc2ccc(Cl)nc2-c2cn(C)nc2C)c2c(c1)c(=O)n(C)c1c2cnn1C1CCN(C)CC1 (stereo not shown) [Compound 165, 9-[1-[[6-chloro-2-(1,3-dimethylpyrazol-4-yl)-3-pyridyl]amino]ethyl]-4,7-dimethyl-3-(1-methyl-4-piperidyl)pyrazolo[3,4-c]isoquinolin-5-one] | < 1000
16 | Cc1cc(C(C)Nc2ccc(Cl)nc2-c2ccc(=O)n(C)c2)c2c(c1)c(=O)n(C)c1c2cnn1C1CCN(C)CC1 (stereo not shown) [Compound 166, 9-[1-[[6-chloro-2-(1-methyl-6-oxo-3-pyridyl)-3-pyridyl]amino]ethyl]-4,7-dimethyl-3-(1-methyl-4-piperidyl)pyrazolo[3,4-c]isoquinolin-5-one] | < 1000
17 | Cc1cc(C(C)Nc2ccc(Cl)nc2N2CCC(O)CC2)c2c(c1)c(=O)n(C)c1c2cnn1C1CCN(C)CC1 (stereo not shown) [Compound 167, 9-[1-[[6-chloro-2-(4-hydroxy-1-piperidyl)-3-pyridyl]amino]ethyl]-4,7-dimethyl-3-(1-methyl-4-piperidyl)pyrazolo[3,4-c]isoquinolin-5-one] | < 1000
18 | Cc1cc(C(C)Nc2ccc(Cl)nc2-c2ccncc2F)c2c(c1)c(=O)n(C)c1c2cnn1C1CCN(C)CC1 (stereo not shown) [Compound 168, 9-[1-[[6-chloro-2-(3-fluoro-4-pyridyl)-3-pyridyl]amino]ethyl]-4,7-dimethyl-3-(1-methyl-4-piperidyl)pyrazolo[3,4-c]isoquinolin-5-one] | < 1000
19 | Cc1cc(C(C)Nc2ccc(Cl)nc2-c2cccnc2)c2c(c1)c(=O)n(C)c1c2cnn1C1CCN(C)CC1 (stereo not shown) [Compound 169, 9-[1-[[6-chloro-2-(3-pyridyl)-3-pyridyl]amino]ethyl]-4,7-dimethyl-3-(1-methyl-4-piperidyl)pyrazolo[3,4-c]isoquinolin-5-one] | < 1000
20 | CNC(=O)c1ccc(-c2nc(C)ccc2NC(C)c2cc(C)cc3c(=O)n(C)c4c(cnn4C4CCN(C)CC4)c23)cn1 (stereo not shown) [Compound 170] | < 1000
21 | Cc1cc(C(C)Nc2ccc(Cl)nc2-c2ccn(C)c(=O)c2)c2c(c1)c(=O)n(C)c1c2cnn1C1CCN(C)CC1 (stereo not shown) [Compound 171, 9-[1-[[6-chloro-2-(1-methyl-2-oxo-4-pyridyl)-3-pyridyl]amino]ethyl]-4,7-dimethyl-3-(1-methyl-4-piperidyl)pyrazolo[3,4-c]isoquinolin-5-one] | < 1000
22 | Cc1cc(C(C)Nc2ccc(Cl)nc2-c2cnn(C)c2)c2c(c1)c(=O)n(C)c1c2cnn1C1CCN(CC(C)(C)O)CC1 (stereo not shown) [Compound 172, 9-[1-[[6-Chloro-2-(1-methylpyrazol-4-yl)-3-pyridyl]amino]ethyl]-3-[1-(2-hydroxy-2-methyl-propyl)-4-piperidyl]-4,7-dimethyl-pyrazolo[3,4-c]isoquinolin-5-one] | < 1000
23 | Cc1cc(C(C)Nc2ccc(Cl)nc2-c2cnn(C)c2)c2c(c1)c(=O)n(C)c1c2cnn1C1CCN(C[C@@H](C)O)CC1 (stereo partly drawn) [Compound 173, 9-[1-[[6-chloro-2-(1-methylpyrazol-4-yl)-3-pyridyl]amino]ethyl]-3-[1-[(2R)-2-hydroxypropyl]-4-piperidyl]-4,7-dimethyl-pyrazolo[3,4-c]isoquinolin-5-one] | < 1000
24 | Cc1cc(C(C)Nc2ccc(Cl)nc2-c2cnn(C)c2)c2c(c1)c(=O)n(C)c1c2cnn1C1CCN(C[C@H](C)O)CC1 (stereo partly drawn) [Compound 174, 9-[1-[[6-chloro-2-(1-methylpyrazol-4-yl)-3-pyridyl]amino]ethyl]-3-[1-[(2S)-2-hydroxypropyl]-4-piperidyl]-4,7-dimethyl-pyrazolo[3,4-c]isoquinolin-5-one] | < 1000
25 | Cc1cc(C(C)Nc2ccc(Cl)nc2-c2ncn(C)n2)c2c(c1)c(=O)n(C)c1c2cnn1C1CCN(CC(C)(C)O)CC1 (stereo not shown) [Compound 175, 9-(1-((6-chloro-2-(1-methyl-1H-1,2,4-triazol-3-yl)pyridin-3-yl)amino)ethyl)-3-(1-(2-hydroxy-2-methylpropyl)piperidin-4-yl)-4,7-dimethyl-3,4-dihydro-5H-pyrazolo[3,4-c]isoquinolin-5-one] | < 1000
